Values of other authors in paper PMC7904743, “WIDOCK: a reactive docking protocol for virtual screening of covalent inhibitors” (Journal of Computer-Aided Molecular Design, 2021).
Where two headings read alike, the source gives them in different places.

How the values were obtained:
[1] = thiol reactivity, cited from earlier work
OTUB2 = conditions: experimental actives if % labeling higher than 50%, cited from earlier work
NUDT7 = conditions: protein labeling at 200 μM; experimental actives if % labeling higher than 50%; cited from earlier work
[2] = natural log of average rate constant k
[3] = natural logarithm of average rate constant
[4] = natural log of average kinetic rate constant
[5] = natural log of average rate constant

SMILES	ln(avg k) [1, 2]	ln(avg k) [1, 3]	OTUB2 % labeling (OTUB2) [%]	NUDT7 % labeling (NUDT7) [%]	ln(avg k) [1, 4]	ln(avg k) [1, 5]	OTUB2 % labeling (OTUB2; OTUB2 protein labeling) [%]
O=C(CCl)NC(=O)Nc1ccc(Br)cc1 [PCM-0102308, O=C(CCl)NC(=O)Nc1ccc(Br)cc1]	-16.949	-16.949	10	17	–	–	–
O=C(CCl)N1CCC(c2nc3ccccc3o2)CC1 [PCM-0102920, O=C(CCl)N1CCC(c2nc3ccccc3o2)CC1]	–	–	–	0	-15.428	-15.428	0
NC(=O)C1CCCN(C(=O)CCl)C1 (stereo not shown) [PCM-0102495, NC(=O)C1CCCN(C(=O)CCl)C1]	-15.454	-15.454	0	0	–	–	–
O=C(CCl)N1CCN(Cc2ccc3c(c2)OCO3)CC1 [PCM-0102397, O=C(CCl)N1CCN(Cc2ccc3c(c2)OCO3)CC1]	-15.445	-15.445	0	0	–	–	–
Cc1cc(C)c(NC(=O)CCl)c(C)c1 [PCM-0102352, Cc1cc(C)c(NC(=O)CCl)c(C)c1]	-17.111	-17.111	0	0	–	–	–
CC(C)(C)c1ccc(NC(=O)CCl)cc1 [PCM-0102622, CC(C)(C)c1ccc(NC(=O)CCl)cc1]	-15.995	-15.995	32	0	–	–	–
COc1ccc(C2CCCCCN2C(=O)CCl)cc1 (stereo not shown) [PCM-0102558, COc1ccc(C2CCCCCN2C(=O)CCl)cc1]	-16.020	-16.020	0	100	–	–	–
CC(C)C(=O)NNC(=O)CCl [PCM-0103014, CC(C)C(=O)NNC(=O)CCl]	–	–	–	0	-17.522	-17.522	9
O=C(CCl)N1CCN(c2ccccc2F)CC1 [PCM-0102373, O=C(CCl)N1CCN(c2ccccc2F)CC1]	-15.871	-15.871	0	0	–	–	–
O=C(CCl)N1CCOC(c2ccc(F)cc2)C1 (stereo not shown) [PCM-0102615, O=C(CCl)N1CCOC(c2ccc(F)cc2)C1]	-15.513	-15.513	0	0	–	–	–
COC(=O)c1ccccc1N(C)C(=O)CCl [PCM-0102589, COC(=O)c1ccccc1N(C)C(=O)CCl]	-16.323	-16.323	0	15	–	–	–
CC(NC(=O)CCl)c1ccc2c(c1)OCCO2 (stereo not shown) [PCM-0102342, CC(NC(=O)CCl)c1ccc2c(c1)OCCO2]	-16.412	-16.412	57	8	–	–	–
O=C(CCl)Nc1cc2c(cc1Cl)OCCO2 [PCM-0102585, O=C(CCl)Nc1cc2c(cc1Cl)OCCO2]	-16.394	-16.394	0	12	–	–	–
Cc1ccc(N(C(=O)CCl)C2C=CS(=O)(=O)C2)cc1 (stereo not shown) [PCM-0102539, Cc1ccc(N(C(=O)CCl)C2C=CS(=O)(=O)C2)cc1]	-15.258	-15.258	16	33	–	–	–
Cc1ccc(NC(=O)CCl)c(F)c1 [PCM-0103028, Cc1ccc(NC(=O)CCl)c(F)c1]	–	–	–	0	-16.314	-16.314	14
NS(=O)(=O)c1ccc(NC(=O)CCl)cc1 [PCM-0102807, NS(=O)(=O)c1ccc(NC(=O)CCl)cc1]	–	–	–	0	-15.463	-15.463	29
COC(=O)c1sccc1NC(=O)CCl [PCM-0102367, COC(=O)c1sccc1NC(=O)CCl]	-15.715	-15.715	0	12	–	–	–

SMILES	ln(avg k) [1, 2]	ln(avg k) [1, 3]	OTUB2 % labeling (OTUB2) [%]	NUDT7 % labeling (NUDT7) [%]	ln(avg k) [1, 4]	ln(avg k) [1, 5]	OTUB2 % labeling (OTUB2; OTUB2 protein labeling) [%]
CN(Cc1cc(Br)cs1)C(=O)CCl [PCM-0103081, CN(Cc1cc(Br)cs1)C(=O)CCl]	–	–	–	0	-15.601	-15.601	0
N#Cc1ccc(CNC(=O)CCl)cc1 [PCM-0102946, N#Cc1ccc(CNC(=O)CCl)cc1]	–	–	–	0	-16.364	-16.364	35
Cc1ccccc1CN(C)C(=O)CCl [PCM-0102707, Cc1ccccc1CN(C)C(=O)CCl]	–	-15.717	0	13	–	-15.717	–
COc1ccc(N2CCN(C(=O)CCl)CC2)cc1 [PCM-0102254, COc1ccc(N2CCN(C(=O)CCl)CC2)cc1]	-15.625	-15.625	0	0	–	–	–
CN(C(=O)CCl)C1CCCc2ccccc21 (stereo not shown) [PCM-0102703, CN(C(=O)CCl)C1CCCc2ccccc21]	–	-15.771	0	30	–	-15.771	–
Cc1cc(NC(=O)CCl)n(-c2ccc(F)cc2)n1 [PCM-0102665, Cc1cc(NC(=O)CCl)n(-c2ccc(F)cc2)n1]	-15.905	-15.905	53	0	–	–	–
Cc1ccc(C(=O)N2CCN(C(=O)CCl)CC2)cc1 [PCM-0102962, Cc1ccc(C(=O)N2CCN(C(=O)CCl)CC2)cc1]	–	–	–	0	-15.309	-15.309	0
O=C(CCl)N(c1ccccc1)C1C=CS(=O)(=O)C1 (stereo not shown) [PCM-0102372, O=C(CCl)N(c1ccccc1)C1C=CS(=O)(=O)C1]	-15.071	-15.071	0	28	–	–	–
O=C(CCl)NC(=O)NC1CC1 [PCM-0102411, O=C(CCl)NC(=O)NC1CC1]	-16.777	-16.777	0	0	–	–	–
O=C(CCl)NC1CCN(C(=O)C2CCCCC2)CC1 [PCM-0102931, O=C(CCl)NC1CCN(C(=O)C2CCCCC2)CC1]	–	–	–	0	-16.253	-16.253	9
CC1(NC(=O)CCl)CCS(=O)(=O)C1 (stereo not shown) [PCM-0102230, CC1(NC(=O)CCl)CCS(=O)(=O)C1]	-16.090	-16.090	0	0	–	–	–
CN(C)S(=O)(=O)c1ccc2c(c1)CCCN2C(=O)CCl [PCM-0102285, CN(C)S(=O)(=O)c1ccc2c(c1)CCCN2C(=O)CCl]	-15.789	-15.789	0	0	–	–	–
Cc1ccc(-n2nc(C)cc2NC(=O)CCl)cc1 [PCM-0102224, Cc1ccc(-n2nc(C)cc2NC(=O)CCl)cc1]	-16.116	-16.116	35	0	–	–	–
CN(Cc1cnn(C)c1)C(=O)CCl [PCM-0102899, CN(Cc1cnn(C)c1)C(=O)CCl]	–	–	–	8	-15.596	-15.596	26
Cc1n[nH]c(C)c1NC(=O)CCl [PCM-0102588, Cc1n[nH]c(C)c1NC(=O)CCl]	-16.991	-16.991	0	0	–	–	–
O=C(CCl)N1N=C(c2cccs2)CC1c1ccco1 (stereo not shown) [PCM-0102295, O=C(CCl)N1N=C(c2cccs2)CC1c1ccco1]	-14.545	-14.545	6	46	–	–	–
Cc1cc(NC(=O)CCl)n(-c2ccccc2F)n1 [PCM-0103066, Cc1cc(NC(=O)CCl)n(-c2ccccc2F)n1]	–	–	–	0	-15.986	-15.986	44
